Results taken from patent publication US9676721B2, “Compounds and compositions for the inhibition of NAMPT” (FORMA TM, LLC, priority 2010, dated 2017).

How the values were obtained:
tumor cell lines = details: broad range of tumor cell lines; cited from earlier work
K562 leukemia cell line = details: cited from earlier work
THP-1 leukemia cell line = details: cited from earlier work
mouse mammary carcinoma = mouse mammary carcinoma model; cited from earlier work
HepG2 cells = details: cited from earlier work
[1] = tested on: murine renal cell carcinoma; details: cited from earlier work
A2780 cells [2] = assay: In Vivo Xenograft Studies; details: A2780 xenograft in C.B-17 scid mice, p.o. BID for 5 or 10 days
Protocol: In Vivo Xenograft Studies: […] The compounds were formulated in 60:30:10 PEG-400:D5W: Ethanol and administered p.o., at the dose volume of 10 ml/kg BID for a duration of 5 or 10 days. The dose used for efficacy was selected from the MTD (Maximum Tolerated Dose) study. Mice were weighed and tumors measured using vernier calipers every alternate day. Tumor volume was calculated according to the formula (length×width^2)/2. All animal work was approved by the Institutional Animal Care and Use Committee of Biological Resource Centre, Singapore.

NAMPT = NAMPT (Homo sapiens (Human), UniProt P43490); assay: Biochemical Inhibition Assay (NAMPT enzymatic reaction, NMN by mass spectrometry); details: recombinant His-tagged NAMPT 33 nM, 1 μM NAM, 30 minutes; read-out: Biochem IC50
Chain of NAMPT (P43490 whole entry): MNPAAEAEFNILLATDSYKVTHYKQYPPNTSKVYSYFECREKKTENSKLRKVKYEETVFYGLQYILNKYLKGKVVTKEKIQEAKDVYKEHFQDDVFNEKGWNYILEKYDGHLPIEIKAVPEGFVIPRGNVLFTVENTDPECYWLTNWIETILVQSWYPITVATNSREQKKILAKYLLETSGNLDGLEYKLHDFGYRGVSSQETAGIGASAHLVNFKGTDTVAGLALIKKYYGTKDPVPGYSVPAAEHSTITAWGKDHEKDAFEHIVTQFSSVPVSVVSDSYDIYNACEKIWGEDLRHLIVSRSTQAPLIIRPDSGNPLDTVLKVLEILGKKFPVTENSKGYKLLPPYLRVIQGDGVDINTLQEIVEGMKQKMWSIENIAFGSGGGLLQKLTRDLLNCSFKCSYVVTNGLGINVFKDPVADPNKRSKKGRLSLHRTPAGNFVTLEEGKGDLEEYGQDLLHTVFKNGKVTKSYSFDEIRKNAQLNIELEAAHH
Procedure, shortened: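 His-tagged human NAMPT from E. coli in 50 mM Hepes pH 7.5, 50 mM NaCl, 5 mM MgCl2, 1 mM THP. Product NMN quantified by RapidFire ESI mass spectrometry, normalised to L-cystathionine internal control and background-subtracted; % inhibition converted to IC50.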

A2780 cells [3] = assay: In-Vitro Cell Proliferation Assay (SRB); type: cell-based; details: Homo sapiens, A2780, 72 h
Procedure, shortened: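 A2780 cells treated 72 h at 37 °C, 5% CO2 with serially diluted compound, 0.1% DMSO final. Viable cells by sulforhodamine B staining after TCA fixation, absorbance 570 nm, background-subtracted for % inhibition and IC50; specificity checked by co-addition of NAM or NMN.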

Row | SMILES | IC50 (NAMPT) | IC50 (A2780 cells [3]) | other results
1 | N#C/N=C(\NCCCCCCOc1ccc(Cl)cc1)Nc1ccncc1 [CHS-828] | – | – | cell growth (tumor cell lines): potently inhibits cell growth
2 | O=C(/C=C/c1cccnc1)NCCCCC1CCN(C(=O)c2ccccc2)CC1 [FK866, (E)-N-[4-(1-benzoylpiperidin-4-yl)butyl]-3-(pyridine-3-yl)-acrylamide] | – | – | effect on MNNG-induced cell death (K562 leukemia cell line): chemosensitizing effect; effect on MNNG-induced cell death (THP-1 leukemia cell line): chemosensitizing effect; tumor growth (mouse mammary carcinoma): induces a delay in tumor growth; apoptosis (HepG2 cells): induces apoptosis; activities in tumor model [1]: anti-tumor, antimetastatic, and anti-angiogenic activities
3 | CCOc1ccccc1S(=O)(=O)c1ccc(CNC(=NC#N)Nc2ccncc2)cc1 [2-cyano-1-({4-[(2-ethoxybenzene)sulfonyl]phenyl}methyl)-3-(pyridin-4-yl)guanidine] | 7.1 nM | 3.5 nM | effect on tumor growth (A2780 cells [2]): delayed tumor growth
4 | COc1cccc(S(=O)(=O)c2ccc(CNC(=NC#N)Nc3ccncc3)cc2)c1 [2-cyano-1-({4-[(3-methoxybenzene)sulfonyl]phenyl}methyl)-3-(pyridin-4-yl)guanidine] | 1.5 nM | 3.4 nM | –

The next lines start with results.

Row | IC50 (NAMPT) | IC50 (A2780 cells [3]) | SMILES | other results
5 | 3.8 nM | 2.8 nM | CC(C)c1ccc(S(=O)(=O)c2ccc(CNC(=NC#N)Nc3ccncc3)cc2)cc1 [2-cyano-1-[(4-{[4-(propan-2-yl)benzene]sulfonyl}phenyl)methyl]-3-(pyridin-4-yl)guanidine] | –
6 | 4.3 nM | 9.1 nM | COc1cncc(S(=O)(=O)c2ccc(CNC(=NC#N)Nc3ccncc3)cc2)c1 [2-cyano-1-{[4-(5-methoxypyridine-3-sulfonyl)phenyl]methyl}-3-(pyridin-4-yl)guanidine] | –
7 | 20.4 nM | 15 nM | COc1ccc(S(=O)(=O)c2ccc(CNC(=NC#N)Nc3ccncc3)cc2)cc1C [2-cyano-1-({4-[(4-methoxy-3-methylbenzene)sulfonyl]phenyl}methyl)-3-(pyridin-4-yl)guanidine] | –
8 | 6.5 nM | 27.8 nM | CNC(=O)c1ccc(S(=O)(=O)c2ccc(CNC(=NC#N)Nc3ccncc3)cc2)cn1 [5-[(4-{[2-cyano-3-(pyridin-4-yl)carbamimidamido]methyl}benzene)sulfonyl]-N-methylpyridine-2-carboxamide] | –
9 | 3.1 nM | 3.9 nM | Cc1cc(S(=O)(=O)c2ccc(CNC(=NC#N)Nc3ccncc3)cc2)ccc1F [2-cyano-1-({4-[(4-fluoro-3-methylbenzene)sulfonyl]phenyl}methyl)-3-(pyridin-4-yl)guanidine] | –
10 | 5.2 nM | 4.6 nM | Cc1cccc(S(=O)(=O)c2ccc(CNC(=NC#N)Nc3ccncc3)cc2)c1 [2-cyano-1-({4-[(3-methylbenzene)sulfonyl]phenyl}methyl)-3-(pyridin-4-yl)guanidine] | –
